Patent US9605064B2, “Methods and compositions for treatment of skin disorders” (AbbVie Biotechnology Ltd, priority 2006, dated 2017)

Columns and labels:
[1] = tested on: patients with moderate to severe chronic plaque psoriasis; experiment: PASI response, CHAMPION 16-week Phase III trial vs methotrexate and placebo; type: in vivo, human; details: ITT; for PASI 75 Response Rates, % Patients / PASI 90 Response Rates, % Patients: missing PASI = non-responder
Protocol: (§1) Analytical methods included the following: • Intention-to-treat analyses were performed for all randomized patients • Missing data were analyzed using non-responder imputation (NRI) • PASI 75 at Week 16 (primary endpoint) was analyzed using adjusted Cochran-Mantel-Haenszel test.

[2] = tested on: patients with moderate to severe chronic plaque psoriasis; experiment: PGA, CHAMPION 16-week Phase III trial; type: in vivo, human; details: ITT, missing PGA = not achieving
Protocol: as §1

[3] = tested on: patients with moderate to severe chronic plaque psoriasis; experiment: PASI response, open-label extension of CHAMPION (methotrexate to adalimumab transition); type: in vivo, human; details: prior to starting adalimumab, after 16 weeks of methotrexate in CHAMPION; 95 patients
[4] = tested on: patients with moderate to severe chronic plaque psoriasis; details: human, in vivo, 16 weeks
Text: (§2) The study was a multi-center, 16-week, randomized controlled Phase III trial. The main inclusion criteria included: • Clinical diagnosis of psoriasis for ≧1 year • Affected body surface area (BSA)≧10% • Psoriasis Area and Severity Index (PASI)≧10 The main exclusion criteria was previous use of MTX or systemic anti-TNF therapy.

[5] = tested on: patients with moderate to severe chronic plaque psoriasis; experiment: Adverse events, CHAMPION 16-week Phase III trial; details: 16-week study
Text: as §2

[6] = MTX N = 110, Adalimumab N = 107

CN(Cc1cnc2nc(N)nc(N)c2n1)c1ccc(C(=O)N[C@@H](CCC(=O)O)C(=O)O)cc1 [methotrexate, reference compound]
PASI 75 Response Rates, % Patients ([1]; Week 4): 3% | PASI 90 Response Rates, % Patients ([1]; Week 4): 1% | PASI 75 Response Rates, % Patients ([1]; Week 8): 9% | PASI 90 Response Rates, % Patients ([1]; Week 8): 3% | PASI 75 Response Rates, % Patients ([1]; Week 12): 25% | PASI 90 Response Rates, % Patients ([1]; Week 12): 9% | PASI 75 ([1]; Week 16, NRI): 36% | PASI 75 Response Rates, % Patients ([1]; Week 16): 36% | PASI 90 Response Rates, % Patients ([1]; Week 16): 14% | PASI 75 Response Rates, % Patients ([1]; Week 16, listed as MTX): 35.5% | PASI 90 Response Rates, % Patients ([1]; Week 16, listed as MTX): 13.6% | PASI 50 response rate ([1]; Week 16 of CHAMPION, NRI): 61.8% | PASI 100 response rate ([1]; Week 16 of CHAMPION, NRI): 7.3% | PGA “Clear” or “Minimal” Responses, % Patients ([2]; Week 4): 1% | PGA “Clear” or “Minimal” Responses, % Patients ([2]; Week 8): 3% | PGA “Clear” or “Minimal” Responses, % Patients ([2]; Week 12): 9% | PGA “Clear” or “Minimal” Responses, % Patients ([2]; Week 16): 14% | PASI 75 response rate [3]: 28% | PASI 90 response rate [3]: 14% | PASI 100 response rate [3]: 5% | Viral Infection [4]: 6 (6) n (%) | Any AE [5, 6]: 89 (81) n (%) | Any AE leading to discontinuation [5, 6]: 6 (6) n (%) | Any SAE [5, 6]: 1 (1) n (%) | Any infectious AE [5, 6]: 46 (42) n (%) | Any infectious SAE [5, 6]: 0 (0) n (%) | Arthralgia ([5]; common AE in ≧5% of patients): 5 (5) n (%) | Gamma-Glutamyltransferase Increased ([5]; common AE in ≧5% of patients): 0 (0) n (%) | Headache ([5]; common AE in ≧5% of patients): 12 (11) n (%) | Nasopharyngitis ([5]; common AE in ≧5% of patients): 26 (24) n (%) | Nausea ([5]; common AE in ≧5% of patients): 8 (7) n (%) | Pruritus ([5]; common AE in ≧5% of patients): 2 (2) n (%) | Rhinitis ([5]; common AE in ≧5% of patients): 4 (4) n (%) | Rhinorrhea ([5]; common AE in ≧5% of patients): 0 (0) n (%)
